# Assays:
# SOX9 = SOX9 luciferase reporter assay in transfected astrocytes; type: cell-based, rat; details: cultured rat astrocytes, 24 h treatment
# Text: Cultures early after plating bear characteristics of immature and reactive astroctyes associated with acute damage. In this assay, primary astrocytes are transfected with a SOX9 reporter construct that consists of 4 repeats of the SOX9 binding site coupled to the mouse Col2a1 minimal promoter cloned upstream of a luciferase gene in the plasmid pGL4, as previously described in WO 2008/049226. After normalization for transfection efficiency, SOX9 activity can be monitored in transfected astrocytes by luciferase activity. Cells transfected with the SOX9 reporter construct were cultured in the presence and absence of potential inhibitors for 24 hours at which time the cells were lysed and luciferase levels measured. Compounds that reduced the levels of luciferase activity relative to control wells were considered as positive “hits”. In a secondary screen, false positives that cause a reduction in luciferase activity due to effects on cell viability, were eliminated using a cell viability assay (CellTiter-Flour—Promega). Subsequent to secondary screening, the “hits” were evaluated for their affect on SOX9 target gene expression by Q-PCR studies in primary astrocytes.
# The utility of calmodulin antagonists (inhibitor) to decrease SOX9 target gene expression was evaluated in cultured rat astrocytes transfected with pGL4.1 4×48 Col2a1 prepared as described in Example 1. This plasmid contains 4-48 bp SOX9-binding sites from the Col2A1 enhancer which promote luciferase reporter gene expression in cells where SOX9 is active i.e. in the nucleus. The day after transfection, cells were treated for 24 h with inhibitor in concentrations as described below and in FIG. 5 before the luciferase assay was performed.
# In this example, the potential of compounds that modulate calcium channels to modulate SOX9 activity is tested. The compounds were evaluated in cultured rat astrocytes transfected with pGL4.1 4×48 Col2a1. The day after transfection, cells were treated for 24 h with selected inhibitors before the luciferase assay was performed.
# Antagonists to TRPV4 cation channel were tested to determine their ability to decrease the activity of SOX9 in astrocytes. The effect of TRPV4 antagonists on SOX9 function was evaluated in cultured rat astrocytes transfected with pGL4.1 4×48 Col2a1. The day after transfection, cells were treated for 24 h with 2-APB (100 μM) or ruthenium red (10 μM) before the luciferase assay was performed. […] With respect to SOX9 target genes, Q-PCR analysis of aged primary astrocyte cultures was performed to determine the impact of the TRPV4 antagonists on SOX9. […] Collagen IV is a significant scarring extracellular matrix produced by astrocytes and contributing to the inhibitory properties of the glial scar.
# Collagen IV = experiment: Western blotting of astrocyte culture protein extract probed with anti-collagen IV; type: cell-based, rat; details: 20 uM
# SOX9 target genes [1] = experiment: Real-time PCR of SOX9 target genes after SCI, chlorpromazine i.p. once a day for 7 days; type: in vivo, rat
# Protocol: In the context of rodent studies, administration of chlorpromazine was assessed using delivery by intraperitoneal injection (as described in Example 3) and intrathecal miniosmotic pump (as described in Example 5). In summary, three doses of chlorpromazine were given i.p. (2 mg/kg, 4 mg/kg and 6 mg/kg) once a day for 7 days. The rats were then sacrificed and realtime pCR analysis of SOX9, GFAP. XT1, link protein, collagen 2A, aggrecan and brevican was conducted on a spinal cord sample normalizing to 18S.
# SOX9 target genes [2] = experiment: Quantitative RT-PCR of SOX9 target genes after SCI, intrathecal miniosmotic pump delivery for 7 days; type: in vivo, rat; details: spinal cord-injured rats, 0.35 mg/ml or 3.5 mg/ml
# Protocol: To assess, the intrathecal miniosmotic pump as a means of compound delivery, spinal cord-injured rats received either saline, 0.35 mg/ml or 3.5 mg/ml of chlorpromazine for 7 days. At 7 days the levels of SOX9 target gene expression including GFAP, Brevican, XT-1 and Hapln1 were measured by quantitative RT-PCR as previously described.
# [3] = tested on: rats subject to spinal cord injury; experiment: Behavioral testing (BBB scale) after spinal cord injury; type: in vivo; details: rat SCI, 0.35 mg/ml and 3.5 mg/ml for 7 days via intrathecal miniosmotic pump; saline controls no improvement
# Protocol: As examples of the general utility of chemical compounds for general CNS damage and repair, chlorpromazine was assessed in rodent models of spinal cord injury and stroke (MCAO). […] Briefly, rats were subject to spinal cord injury as described and administered chlropromzaine at 0.35 mg/ml and 3.5 mg/ml for 7 days via the intrathecal miniosmotic pump. At 7 days, 4 rats were assessed for behavioral recovery, prior to being sacrificed for gene expression analyses as described above.
# In these studies rats (n=16 per group) will receive the SOX9 inhibitor for 6 weeks at which time half of the animals will be processed for SOX9 target gene expression by Q-PCR (as described above) and half will be processed for immunohistochemistry. […] Locomotor recovery, chronic pain syndromes and autonomic function will be assessed in treated and control mice. Motor function will be evaluated once per week using the Basso, Beattie and Bresnahan (BBB) scale for scoring hind limb function (Basso 1995). The presence of mechanical allodynia (a pain syndrome in which innocuous stimuli are perceived as painful) will be assessed once a week by stimulating the backs of the mice with a modified 1.569 mN Semmes Weinstein monofilament at, and rostral, to the level of the injury. […] Finally autonomic function will be assessed by measuring the degree of autonomic dysreflexia in animals before being sacrificed. […]
# [4] = rat SCI, i.p. 2, 4 and 6 mg/kg once a day for 7 days, normalized to 18S
structure (smiles),measurement,setting,value
CN(C)CCCN1c2ccccc2Sc2ccc(Cl)cc21 [chlorpromazine],concentration at which the decrease in luciferase reporter activity is optimized / maximal,SOX9,20 µM
same,luciferase reporter activity (SOX9 activity),SOX9; various concentrations (FIG. 5),apparent dose dependent response to limiting luciferase expression
same,level of collagen IV (Western blot),Collagen IV,reduced level of collagen
same,impact on target gene expression,"SOX9 target genes [1]; at 2 and 4 mg/kg administration, i.p., 7 days",apparent impact on target gene expression
same,expression of Aggrecan,SOX9 target genes [1]; [4],reduces the expression
same,expression of Brevican,SOX9 target genes [1]; [4],reduces the expression
same,expression of GFAP,SOX9 target genes [1]; [4],reduces the expression
same,expression of HAPLN1,SOX9 target genes [1]; [4],reduces the expression
same,expression of SOX9,SOX9 target genes [1]; [4],reduces the expression
same,expression of XT-1,SOX9 target genes [1]; [4],reduces the expression
same,expression of type 2A Collagen,SOX9 target genes [1]; [4],reduces the expression
same,"SOX9 target gene expression including GFAP, Brevican, XT-1 and Hapln1",SOX9 target genes [2],improved anticipated outcome at 3.5 mg/ml of drug
same,locomoter function score (BBB scale),[3],non-zero scores

# — patent publication US20130266663A1, “SOX9 INHIBITORS” (priority 2010, published 2013)
